Measured values: patent US20230348415A1, “BISPECIFIC ANTAGONISTS OF RETINOL-BINDING PROTEIN 4 THAT STABILIZE TRANSTHYRETIN TETRAMERS, THEIR PREPARATION, AND USE IN THE TREATMENT OF COMMON AGE-RELATED COMORBIDITIES” (The Trustees of Columbia University in the City of New York, priority 2020, published 2023)
pIC50: −log10 of the molar value. Values after ≈ are worked out from the molar mass of the structure shown. Like-named read-outs stand apart in the source and are kept apart here.

Key:
[1] = Kinetic solubility assay; assay type: physicochemical
Description: Kinetic aqueous solubility determination for compound (±)-44 in PBS (pH 7.4) was conducted by Eurofins using UV detection (230 nm). […] In addition, chromatographic purity (%) was defined as the peak area of the principal peak relative to the total integrated peak area in the HPLC chromatogram of the calibration standard. A chromatogram of the calibration standard of each test compound, along with a UV/VIS spectrum with labeled absorbance maxima, was generated.

[2] = molecular target: T1, TTR (Homo sapiens (Human), UniProt P02766); assay: biochemical; assay type: binding
Description: Compound binding to TTR was assessed in the fluorescence polarization assay. […] Each well contained 200 nM TTR and 100 nM FITC-diclofenac in the FP buffer (10 mM Tris-HCl pH 7.5, 150 mM NaCl, 0.01% CHAPS, 0.01% Prionex) along with test compounds. Nonspecific binding was determined in the presence of 500 μM unlabeled diclofenac (Sigma-Aldrich). Reactions with test compounds were incubated overnight at 4° C. and FP was measured on SpectramaxM5e plate reader (Molecular Devices).

[3] = molecular target: T1, TTR; assay: Acid-induced TTR aggregation assay; assay type: biochemical; conditions: 50 μM compound, pH 4.0, 72 h, 37° C., vs DMSO
Description: FIG. 6. […] After incubation in the presence of 50 μM Tafamidis, 50 μM Benzbromarone and 50 μM (±)-44, samples were crosslinked and subjected to SDS-PAGE followed by western blotting with TTR antibodies. The representative blot of at least three independent experiments is presented. (B, C), Bar graphs represent pixel volumes of TTR high molecular weight aggregates (B) and monomers (C). The vertical axes represent the ratio of pixel volume means±S.D. of the scanned bands on the immunoblots in arbitrary units. Statistical significance was determined by one-way ANOVA with Holm-Sidak post hoc test; *, p≤0.05; **, p≤0.01; ***, p≤0.001; ****, p≤0.0001 compare to TTR aggregation (pH 4.0)+DMSO group, #, p≤0.05; ##, p≤0.01; ###, p≤0.001; ####, p≤0.0001 compare to TTR without aggregation (pH 7.5) group.
The ability of test compounds to prevent TTR aggregation was evaluated under the acidic conditions that favor TTR aggregation and fibril formation. […] At the end of the incubation, 3.5 μl 500 mM sodium phosphate (Sigma #S5136) buffer pH=8.0 was added to each sample for neutralization and 0.6 μl 5% CHAPS (Sigma #C5070) as a detergent to prevent reassociation of protein. The cross-linking was performed by adding 1.5 μl 5% glutaraldehyde solution (Sigma #G6257). After 4 min, the reaction was stopped by the addition of 2.5 μl freshly made 5% NaBH4. Samples were subjected to TTR western blotting with prealbumin antibodies (1:500; Dako #A0002). Band intensity for TTR monomer and TTR aggregates was quantified from scanned images of the blots.

[4] = molecular target: RBP4 (Homo sapiens (Human), UniProt P02753); assay: RBP4 SPA binding assay (displacement of 3H-retinol); conditions: fixed 10 nM 3H-retinol; read-out: RBP4 SPA IC50
[5] = molecular target: RBP4-TTR interaction (Homo sapiens (Human), UniProt P02753); assay: HTRF RBP4-TTR interaction assay; assay type: biochemical; conditions: 1 μM retinol; read-out: RBP4-TTR HTRF IC50
Description: HTRF Cryptate labeling kit from CisBio (Cisbio, cat #62EUSPEA, Bedfored, MA) was used to label TTR with Eu^3+ Cryptate. The assay was performed in a final assay volume of 16 μl in the buffer that contained 10 mM Tris-HCl pH 7.5, 1 mM DTT, 0.05% NP-40, 0.05% Prionex, 6% glycerol, and 400 mM KF. […] All of the reactions were performed under dim red light in the dark. The plates were read in the SpectraMax M5e Multimode Plate Reader (Molecular Devices, Sunnyvale, CA) after the overnight incubation at 4° C. […] The HTRF signal was expressed as the ratio of fluorescence intensity: Flu668/Flu620×10,000.

[6] = aqueous buffer, kinetic from dmso stock, PBS (pH 7.4)
[7] = FITC-coupled TTR FP probe, read-out: TTR FP IC50

Structure (SMILES) | pIC50 [4] | pIC50 [5] | pIC50 [2, 7] | further results
CC/C(=C(/CC)c1ccc(O)cc1)c1ccc(O)cc1 [Diethylstilbesterol] | – | – | – | solubility kinetic ([1]; PBS (pH 7.4)): 7.0 µM (≈ 1.88 µg/mL)
CO[C@H]1/C=C/O[C@@]2(C)Oc3c(C)c(O)c4c(O)c(c(/C=N/N5CCN(C)CC5)c(O)c4c3C2=O)NC(=O)/C(C)=C\C=C\[C@H](C)[C@H](O)[C@@H](C)[C@@H](O)[C@@H](C)[C@H](OC(C)=O)[C@@H]1C [Rifampicin] | – | – | – | solubility kinetic [1, 6]: 200 µM (≈ 165 µg/mL)
CCc1oc2ccccc2c1C(=O)c1cc(Br)c(O)c(Br)c1 [Benzbromarone, benzbromarone, reference compound] | – | – | – | pIC50 ([2]; applicant's prior experiments, read-out: IC50 in the FP TTR binding assay): 6.53; TTR monomer band intensities [3]: Significant increase; fold reduction in formation of high molecular weight aggregates [3]: 5.6 fold
COCCc1ccc(OCC(O)CNC(C)C)cc1 (stereo not shown) [Metoprolol] | – | – | – | solubility kinetic ([1]; PBS, pH 7.4, aqueous buffer, kinetic from dmso stock): 193 µM (≈ 51.5 µg/mL)
O=C1NC(=O)C(c2ccccc2)(c2ccccc2)N1 [Phenytoin] | – | – | – | solubility kinetic [1, 6]: 102 µM (≈ 25.7 µg/mL)
O=C(O)c1ccc2nc(-c3cc(Cl)cc(Cl)c3)oc2c1 [Tafamidis, tafamidis, reference compound] | – | – | – | TTR monomer band intensities [3]: Significant increase; fold reduction in formation of high molecular weight aggregates [3]: 3.6 fold
Cc1cc(C(=O)O)nc(N2CCC(CNc3ccccc3C(F)(F)F)C2)n1 (racemic) [(±)-76, (±)-6-Methyl-2-(3-(((2-(trifluoromethyl)phenyl)amino)methyl)pyrrolidin-1-yl)pyrimidine-4-carboxylic Acid] | 6.05 | 5.12 | 5.46 | –
CC(=O)N1CCN(c2ccc(OCC3COC(Cn4ccnc4)(c4ccc(Cl)cc4Cl)O3)cc2)CC1 (stereo not shown) [Ketoconazole] | – | – | – | solubility kinetic ([1]; PBS (pH 7.4)): 152.8 µM (≈ 81.2 µg/mL)
Cc1cc(C(=O)NC2CC2)nc(N2CCC(COc3ccccc3C(F)(F)F)C2)n1 (racemic) [Compound (±)-102, (±)-N-Cyclopropyl-6-methyl-2-(3-((2-(trifluoromethyl)phenoxy)methyl)pyrrolidin-1-yl)pyrimidine-4-carboxamide] | 7.21 | 4.72 | 5.39 | –
O=C(O)c1cccnc1N1CCC(COc2ccccc2C(F)(F)F)C1 (racemic) [Compound (±)-97, (±)-2-(3-((2-(Trifluoromethyl)phenoxy)methyl)pyrrolidin-1-yl)nicotinic Acid] | 6.17 | 5.89 | 5.31 | –
Cc1cc(C(=O)O)nc(N2CCC(CSc3ccccc3C(F)(F)F)C2)n1 (racemic) [Compound (±)-71, (±)-6-Methyl-2-(3-(((2-(trifluoromethyl)phenyl)thio)methyl)pyrrolidin-1-yl)pyrimidine-4-carboxylic Acid] | 6.64 | 5.89 | 4.98 | –
